# Test results as given in US20070161691A1, “Modified-protein formation inhibitor” (TOKAI UNIVERSITY, priority 2003, published 2007).
# Experiments:
# [1] = test system: glomerulonephritis model with mesangial proliferative nephritis; test: Effect against glomerulonephritis (anti Thy-1 antibody model); type: in vivo, rat; details: 1 mg/kg once a day, 5 days
# Description: 1.2 mg/kg of OX-7, anti Thy-1 antibody, was administered to wistar rat (male, body weight 150 g, 6 weeks old) in tail vein to prepare typical glomerulonephritis model with mesangial proliferative nephritis. After the administration of anti Thy-1 antibody, test compound (4-(5-phenyltetrazol-1-ylmethyl)-morpholine (compound 1), 1 mg/kg body weight, once a day) was suspended in 0.5% carboxymethylcellulose, was coercively administered for 5 days continuously, on sixth day sampled, kidney was obtained, and analysed pathologically (count the number of glomerular cells). In particular, cells were stained by PAS according to conventional method, the stained image was captured by 3CCD camera (Olympus), and then analyzed using softwares, Image Graver PCI (FUJI shashin film) and Mac Aspect (Mitani kabushiki kaisha). Also, biochemical analysis of blood and urine was carried out (contract clinical analysis organization: SR L).
# [2] = Suppressing effect on the nitration of tyrosine with peroxynitrite; type: biochemical; details: in comparison with pyridoxamine as positive control; 0.1, 0.5, 2.5 and 5 mM
# Description: According to the method of Pannala, A.S. et al. (Free Radic. Biol. Med., 24:594-606, 1998), the examination was carried out. Namely, tyrosine (final concentration: 100 μM), the test compound (final concentration: 0.1, 0.5, 2.5 and 5 mM) and peroxynitrite (Dojin Kagaku) (final concentration: 500 μM) were dissolved in 200 mM of phosphate buffer (pH7.4) (liquid volume 500 μL) and incubated at 37° C. for 15 minutes. After incubation, the nitrotyrosine formation was determined with HPLC in the following manner: after a predifined time, the reaction mixture (20 μL) was injected onto HPLC, separation was made with C18 column (4.6×250 mm, 5 μm: Waters) and the detection was effected using a ultraviolet detector (RF-10A: Shimazu Seisakusho) at a wavelength of 280 nm. In the mobile phase, the flow rate was 0.6 mL/min and the concentration of buffer B was varied from 5.0% to 30% in 30 minutes (buffer A: 0.10% trifluoroacetic acid; buffer B: 80% acetonitrile containing 0.08% trifluoroacetic acid). 4-Hydroxy-3-nitrobenzoic acid (100 μM) was used as the internal standard.
# [3] = test system: middle cerebral artery ischemia-reperfusion model; test: Cerebroprotective action in middle cerebral artery ischemia-reperfusion model; type: in vivo, rat; details: for cerebral infarction nest: dosed 5 minutes and 5 hours after occlusion
# Description: CD(SD)IGS male rats (Japan Charles River Kabushiki […], Hino farm, room No. 22, specific product) (8 rats per one group) having body weight 270 to 350 g were anesthetized by 2% isoflurane (mixed bas comprising of 70% N2O (laughter gas) and 30% O2) to immobilize, and then the rats were put on warming plate to keep the rectal and brain temperature 37 to 38° C. After that, to observe the stability in the examination, canula which was made by polyethylene (PE-50, Becton Dickinson) was inserted and left in caudal artery of said animal, and this made blood drawing and blood pressure determining to monitor the biochemical parameter such as blood sugar level, hematocrit, CO2 concentration, oxygen partial pressure, pH, blood pressure and etc. In addition, cerebral blood flow in cortex was determined by laser doppler […] (Neuroscience.inc: OMEGA FLOW (FLO-C1)), putting the detection site directly on cranium on the point left 4 mm from bregma. Left neck of such animal was incised, and from internal and external carotid fork of common carotid artery to upstream of internal carotid, nylon surgical thread (length 16 mm, diameter 0.2 to 0.3 mm, with silicon coating on its tip 3 mm) was passed and left, middle cerebral artery was obstructed for 2 hours. After that, the thread was removed to release the middle cerebral artery, and blood was reperfused for 21 hours. To each animals, 3.0 mg/kg of 3-methyl-1-phenyl 2-pyrazolin-5-one (control, hereinafter referring to edaravone) and 4.23 mg/kg of 4-(5-phenyltetrazol-1-ylmethyl)-morpholine (compound 1) (test compound, hereinafter referring to TM-3001) were respectively administered twice by cannula which is left in caudal artery 5 minutes and 5 hours after middle cerebral artery occlusion. After said operation, the brain was removed from said animal, and after preparing 7 brain slices with 2 mm thickness, to TTC stain (0.8 g of 2,3,5-triphenyltetrazolium chloride (Sigma) dissolved in 40 ml of saline) were soaked at 37° C. for 15 minutes to stain, and fixed by 10% neutral formalin liquid to prepare specimen. Such specimens were created the image by CCD camera respectively, and analysed according to method of Swanson et al. (J Cereb Blood Flow Metab 10:290-293; […]). […] Furthermore, function recovering was estimated before and after the operation by rotor rod test that estimates how much they can walk on rotating rotor.
# [4] = Vitamin B6 (PLP; pyridoxal phosphate) trapping; type: biochemical; details: 500 μM compound, 50 μM PLP, PBS
# Description: To a solution of vitamin B6, the compound of this invention is added, and after a certain period of time, an amount of vitamin B6 remained is determined.
# 4-(5-phenyltetrazol-1-ylmethyl)-morpholine (Compound 1), 5-methyl-1-(5-phenyltetrazol-1-ylmethyl)-3a,6a-dihydro-1H-pyrrolo[3,4-d][1,2,3]triazol-4,6-dione (Compound 2) and (5-phenyltetrazol-1-yl)methanol (Compound 3) as well as aminoguanidine as the positive control were each dissolved in DMSO in a designed concentration to make a sample solution. DMSO itself was used as the negative control. In addition, pyridoxal phosphate (PLP) was dissolved in purified-water to make a designed concentration. PBS was added to each of the test compound, the positive control and the negative control, to make a final concentration of 500 μM. The PLP solution as above prepared was added to each of the resultant solution to make a final concentration of 50 μM for preparation of the PLP reaction solution. Using HPLC, the amount of PLP in the PLP reaction solution was determined after 0.1 and 10 hours, from which the PLP trapping amount of each test compound was ascertained.
# The analysis of PLP using HPLC was carried out by separation with reverse-phase C18 column (4.6×250 mm, 5 μm; Waters) and by using a fluorescence detector (RF-10A; Shimazu Seisakusho; excitation wavelength, 300 nm and fluorescence wavelength, 400 nm). In the mobile phase, the flow rate was 0.6 mL/min and the concentration of buffer B was varied from 0% to 3% in 25 minutes (buffer A: 0.10% trifluoroacetic acid; buffer B: 80% acetonitrile containing 0.08% trifluoroacetic acid).
# [5] = comparing to diluent single administration
smiles,measurement,setting,value
"c1ccc(-c2nnnn2CN2CCOCC2)cc1 [Compound 1, 4-(5-phenyltetrazol-1-ylmethyl)-morpholine]",BUN,[1],BUN reducing effect
same,urinary protein,[1],urinary protein reducing effect
same,"nitrotyrosine formation, suppression",[2],suppressed remarkably
same,"Nervous condition estimation test, Ave (Bederson grade)",[3]; after occlusion 10 min,2.4
same,"Nervous condition estimation test, Ave (Bederson grade)",[3]; after occlusion 2 hrs,2.9
same,"Nervous condition estimation test, Ave (Bederson grade)",[3]; after reperfusion 10 min,2.6
same,"Nervous condition estimation test, Ave (Bederson grade)",[3]; after reperfusion 3 hrs,2.4
same,"Nervous condition estimation test, Ave (Bederson grade)",[3]; after reperfusion 4 hrs,2.5
same,"rotor rod test, Ave (count from rotor rod machine)",[3]; before occlusion,300.0
same,improvement for nervous condition,[3]; [5],remarkably shown
same,"recovering the function, rotor rod test",[3]; [5],remarkably shown
same,cerebral infarction nest,[3]; [5],reduction of the cerebral infarction nest
same,cerebral infarction nest,"[3]; comparing to diluent single administration, listed as TM-3001",significantly reduced
same,"rotor rod test, Ave (count from rotor rod machine)",[3]; reperfusion,64.8
same,"rotor rod test, ratio to before occlusion (%), Ave",[3]; reperfusion vs before occlusion,21.6%
same,PLP trapping,[4],none
